# In the RepoRT retention time repository (doi:10.1016/j.jchromb.2020.122105):
# Tests used:
# Settings in all cases: stereoisomer not certain
# [1] = RP, Waters CORTECS T3, 100 × 2.1 mm, 2.7 µm, 0.2 mL/min, estimated dead time 1.1 min; A: water + 0.1% formic acid, pH 3; B: methanol + 0.1% formic acid, pH 3; gradient (min/%B) 0/0 1/0 6/5 30/100 35/100 35.1/0 40/0
# [2] = RP, Waters CORTECS T3, 100 × 2.1 mm, 2.7 µm, 0.25 mL/min, estimated dead time 0.88 min; A: water + 0.1% formic acid, pH 3; B: methanol + 0.1% formic acid, pH 3; gradient (min/%B) 0/5 5/5 25/95 25.1/100 35/100 35.1/5 45/5
# [3] = RP, Waters CORTECS T3, 100 × 2.1 mm, 2.7 µm, 0.3 mL/min, estimated dead time 0.73 min; A: water + 0.1% formic acid, pH 3; B: methanol + 0.1% formic acid, pH 3; gradient (min/%B) 0/0 1/0 6/5 30/100 35/100 35.1/0 40/0
# [4] = RP, Waters CORTECS T3, 100 × 2.1 mm, 2.7 µm, 0.3 mL/min, estimated dead time 0.73 min; A: water + 0.1% formic acid, pH 3; B: methanol + 0.1% formic acid, pH 3; gradient (min/%B) 0/0 5/0 25/100 30/100 30.1/0 35/0
# [5] = RP, Waters CORTECS T3, 100 × 2.1 mm, 2.7 µm, 0.15 mL/min, estimated dead time 1.5 min; A: water + 0.1% formic acid, pH 3; B: methanol + 0.1% formic acid, pH 3; gradient (min/%B) 0/5 5/5 25/95 25.1/100 35/100 35.1/5 45/5
# [6] = HILIC, Merck SeQuant ZIC-HILIC, 150 × 2.1 mm, 5 µm, 0.75 mL/min, estimated dead time 0.44 min; A: water + 10 mM ammonium formate, pH 6; B: 5% water + 95% acetonitrile + 10 mM ammonium formate, pH 6; gradient (min/%B) 0/95 5/95 20/57 25/57 30/95 40/95
# [7] = HILIC, Waters XBridge BEH Amide, 100 × 2.1 mm, 2.5 µm, 0.5 mL/min, estimated dead time 0.44 min; A: water + 0.1% acetic acid + 10 mM ammonium acetate, pH 4; B: 5% water + 95% acetonitrile + 0.1% acetic acid + 10 mM ammonium acetate, pH 4; gradient (min/%B) 0/95 5/95 20/57 25/57 30/95 40/95
# [8] = RP, Thermo Scientific Hypercarb, 150 × 2.1 mm, 5 µm, 0.1 mL/min, estimated dead time 3.3 min; A: water + 0.1% formic acid, pH 3; B: methanol + 0.1% formic acid, pH 3; gradient (min/%B) 0/5 5/5 20/100 35/100 35.1/5 45/5
# [9] = RP, Waters ACQUITY UPLC BEH C18, 100 × 2.1 mm, 1.7 µm, 0.1 mL/min, estimated dead time 2.2 min; A: water + 0.1% formic acid, pH 3; B: methanol + 0.1% formic acid, pH 3; gradient (min/%B) 0/5 5/5 25/95 25.1/100 35/100 35.1/5 45/5
# [10] = RP, Waters ACQUITY UPLC BEH C18, 100 × 2.1 mm, 1.7 µm, 0.2 mL/min, estimated dead time 1.1 min; A: water + 0.025% formic acid + 20 mM ammonium acetate + 0.055% ammonium hydroxide, pH 7; B: methanol; gradient (min/%B) 0/5 5/5 25/100 30/100 30.1/5 35/5
# [11] = RP, Waters ACQUITY UPLC BEH C18, 100 × 2.1 mm, 1.7 µm, 0.2 mL/min, estimated dead time 1.1 min; A: water + 0.1% formic acid, pH 3; B: methanol + 0.1% formic acid, pH 3; gradient (min/%B) 0/5 5/5 25/100 30/100 30.1/5 35/5
# [12] = HILIC, Merck SeQuant ZIC-HILIC, 150 × 2.1 mm, 5 µm, 0.75 mL/min, estimated dead time 0.44 min; A: water + 0.1% acetic acid + 10 mM ammonium acetate, pH 4; B: 5% water + 95% acetonitrile + 0.1% acetic acid + 10 mM ammonium acetate, pH 4; gradient (min/%B) 0/95 5/95 20/57 25/57 30/95 40/95
# [13] = RP, Waters CORTECS T3, 100 × 2.1 mm, 2.7 µm, 0.2 mL/min, estimated dead time 1.1 min; A: water + 0.1% formic acid, pH 3; B: methanol + 0.1% formic acid, pH 3; gradient (min/%B) 0/5 5/5 25/95 25.1/100 35/100 35.1/5 45/5
# [14] = RP, Waters ACQUITY UPLC BEH C18, 100 × 2.1 mm, 1.7 µm, 0.1 mL/min, estimated dead time 2.2 min; A: water + 0.1% formic acid, pH 3; B: methanol + 0.1% formic acid, pH 3; gradient (min/%B) 0/5 5/5 25/95 25.1/100 35/100 35.1/5 45/5; remark: listed apart in the source
# [15] = RP, Waters CORTECS T3, 100 × 2.1 mm, 2.7 µm, 0.25 mL/min, estimated dead time 0.88 min; A: water + 0.1% formic acid, pH 3; B: methanol + 0.1% formic acid, pH 3; gradient (min/%B) 0/0 1/0 6/5 30/100 35/100 35.1/0 40/0
# [16] = RP, Waters CORTECS T3, 100 × 2.1 mm, 2.7 µm, 0.15 mL/min, estimated dead time 1.5 min; A: water + 0.1% formic acid, pH 3; B: methanol + 0.1% formic acid, pH 3; gradient (min/%B) 0/0 1/0 6/5 30/100 35/100 35.1/0 40/0
# [17] = RP, Waters CORTECS T3, 100 × 2.1 mm, 2.7 µm, 0.2 mL/min, estimated dead time 1.1 min; A: water + 0.1% formic acid, pH 3; B: methanol + 0.1% formic acid, pH 3; gradient (min/%B) 0/0 1/0 6/5 30/100 35/100 35.1/0 40/0; remark: listed apart in the source
# [18] = RP, Waters ACQUITY UPLC BEH C18, 100 × 2.1 mm, 1.7 µm, 0.1 mL/min, estimated dead time 2.2 min; A: water + 0.1% formic acid, pH 3; B: methanol + 0.1% formic acid, pH 3; gradient (min/%B) 0/5 5/5 25/100 30/100 30.1/5 35/5
# [19] = RP, Waters CORTECS T3, 100 × 2.1 mm, 2.7 µm, 0.2 mL/min, estimated dead time 1.1 min; A: water + 0.045% formic acid + 0.11% ammonium hydroxide, pH 7; B: methanol; gradient (min/%B) 0/5 5/5 25/95 25.1/100 35/100 35.1/5 45/5
# [20] = RP, Waters CORTECS T3, 100 × 2.1 mm, 2.7 µm, 0.3 mL/min, estimated dead time 0.73 min; A: water + 0.1% formic acid, pH 3; B: methanol + 0.1% formic acid, pH 3; gradient (min/%B) 0/0 1/0 6/5 30/100 35/100 35.1/0 40/0; remark: listed apart in the source
# [21] = RP, Waters CORTECS T3, 100 × 2.1 mm, 2.7 µm, 0.3 mL/min, estimated dead time 0.73 min; A: water + 0.1% formic acid, pH 3; B: methanol + 0.1% formic acid, pH 3; gradient (min/%B) 0/0 5/0 25/100 30/100 30.1/0 35/0; remark: listed apart in the source
# [22] = RP, Waters CORTECS T3, 100 × 2.1 mm, 2.7 µm, 0.3 mL/min, estimated dead time 0.73 min; A: water + 0.1% formic acid, pH 3; B: methanol + 0.1% formic acid, pH 3; gradient (min/%B) 0/5 5/5 25/95 25.1/100 35/100 35.1/5 45/5
# [23] = RP, Waters CORTECS T3, 100 × 2.1 mm, 2.7 µm, 0.1 mL/min, estimated dead time 2.2 min; A: water + 0.1% formic acid, pH 3; B: methanol + 0.1% formic acid, pH 3; gradient (min/%B) 0/0 1/0 6/5 30/100 35/100 35.1/0 40/0
# [24] = RP, Waters ACQUITY UPLC BEH C18, 100 × 2.1 mm, 1.7 µm, 0.1 mL/min, estimated dead time 2.2 min; A: water + 0.045% formic acid + 0.11% ammonium hydroxide, pH 7; B: methanol; gradient (min/%B) 0/5 5/5 25/95 25.1/100 35/100 35.1/5 45/5
# [25] = RP, Waters CORTECS T3, 100 × 2.1 mm, 2.7 µm, 0.3 mL/min, estimated dead time 0.73 min; A: water + 0.1% formic acid, pH 3; B: methanol + 0.1% formic acid, pH 3; gradient (min/%B) 0/5 5/5 25/100 30/100 30.1/5 35/5
# [26] = RP, Waters ACQUITY UPLC BEH C18, 100 × 2.1 mm, 1.7 µm, 0.2 mL/min, estimated dead time 1.1 min; A: water + 0.025% formic acid + 20 mM ammonium acetate + 0.055% ammonium hydroxide, pH 7; B: methanol; gradient (min/%B) 0/5 5/5 25/100 30/100 30.1/5 35/5; remark: listed apart in the source
Structure (SMILES),LC retention time [1] [min],LC retention time [2] [min],LC retention time [3] [min],LC retention time [4] [min],LC retention time [5] [min],LC retention time [6] [min],LC retention time [7] [min],LC retention time [9] [min],LC retention time [10] [min],LC retention time [11] [min],LC retention time [12] [min],LC retention time [13] [min],LC retention time [14] [min],LC retention time [15] [min],LC retention time [18] [min],other results
CC(=O)NC(CCC(=O)O)C(=O)O (racemic) [N-ACETYL-DL-GLUTAMIC ACID],3.1,1.77,2.22,2.22,2.89,14,13.6,4.43,1.36,2.27,13.6,,,,,LC retention time [8]: 24 min
NCCP(=O)(O)O [(2-AMINOETHYL)PHOSPHONATE],,,,,,,,,,,,2.44,2.75,,,
CN(CC(=O)O)C(N)=NP(=O)(O)O [CREATINE PHOSPHATE],,,,,,,,,,,,,3.05,,,
CC(=O)N[C@@H](CC(C)C)C(=O)O [N-ACETYL-L-LEUCINE],14.6,12,12.8,12.2,14.3,6.56,7.4,17.2,6.59,13.3,5.95,18.4,,,,
CC(=O)NCCc1c[nH]c2ccc(O)cc12 [N-ACETYLSEROTONIN],,,,,11.8,1.15,0.95,13.7,10.2,,1.09,15.3,,11.3,13.6,LC retention time [19]: 10.7 min; LC retention time [20]: 10.8 min; LC retention time [21]: 10.4 min; LC retention time [22]: 9.27 min; LC retention time [16]: 13.3 min; LC retention time [23]: 10.6 min; LC retention time [17]: 12.1 min; LC retention time [26]: 10.6 min; LC retention time [24]: 13.7 min; LC retention time [25]: 9.2 min
C[N+](C)(C)CCOP(=O)(O)O [PHOSPHOCHOLINE],,,,,,,,,,,,,2.66,,,LC retention time [8]: 4.81 min

# The next lines start with results.
LC retention time [1] [min],LC retention time [2] [min],LC retention time [3] [min],LC retention time [4] [min],LC retention time [5] [min],LC retention time [6] [min],LC retention time [7] [min],LC retention time [9] [min],LC retention time [10] [min],LC retention time [11] [min],LC retention time [12] [min],LC retention time [13] [min],LC retention time [14] [min],LC retention time [15] [min],LC retention time [18] [min],Structure (SMILES),other results
,,,,,,,,,,,,2.72,1.09,,C[N+](C)(C)CCOP(=O)(O)OP(=O)([O-])OCC1OC(n2ccc(N)nc2=O)C(O)C1O (configuration not stated) [CYTIDINE 5'-DIPHOSPHOCHOLINE],LC retention time [16]: 1.78 min; LC retention time [17]: 1.34 min
7.02,2.95,5.43,,4.79,10.5,10.3,2.7,1.76,3.31,10.1,10.9,,,2.74,Nc1nc2c(ncn2C2OC(CO)C(O)C2O)c(=O)[nH]1 (configuration not stated) [GUANOSINE],
15.3,12.7,13.6,12.8,14.9,6.61,6.98,17.7,8.81,13.8,5.57,19,,14.4,17.3,CC(=O)N[C@@H](Cc1ccccc1)C(=O)O [N-ACETYL-L-PHENYLALANINE],LC retention time [19]: 9.59 min; LC retention time [20]: 13.6 min; LC retention time [21]: 12.8 min; LC retention time [22]: 12 min; LC retention time [23]: 13.6 min; LC retention time [24]: 13.6 min; LC retention time [25]: 11.8 min
,,,,,,,,,,,,2.78,,2.74,NC(=O)c1ccc[n+](C2OC(COP(=O)(O)OP(=O)(O)OCC3OC(n4cnc5c(N)ncnc54)C(O)C3O)C(O)C2O)c1 (configuration not stated) [NAD],
